Laboratory results from patent US6562865B1, “Composition comprising a tramadol material and an anticonvulsant drug” (Ortho-McNeil Pharmaceutical, Inc., priority 1999, dated 2003).
Where two headings read alike, the source gives them in different places.

How the values were obtained:
[1] = system: hot plate latency response in mice; experiment: Antinociceptive effect in the 48° C. Mouse Hot Plate Model; type: in vivo; conditions: for % Maximal Possible Effect: 1.5 hours
Method: Mice were placed on a heated surface (48° C.) and the time interval (seconds) between placement and a shaking, licking, or tucking of the hind paw was recorded as the predrug latency response. This same procedure was repeated at various times after the test drug was administered p.o., 10 mL/kg.
The 48° C. Mouse Hot Plate was used to calculate the % maximal possible effect (% MPE) according to the formula: [formula]
The analysis of possible synergistic effect at each fixed ratio was determined as described by Tallarida, et al., above.

[2] = system: mechanical (tactile) allodynia in Chung Model rats; experiment: Antiallodynic effect in the Chung Model (L5 spinal nerve ligation, paw withdrawal threshold with von Frey filaments); conditions: for ED50: Rattus norvegicus, po, read-out: ED50 (SEM) of drug alone
Method: The antiallodynic effect of the composition of the present invention in the Chung Model is expressed in % MPE (Maximum Possible Effect).
Pathogen-free, male albino Sprague-Dawley rats, 200 g, were purchased from Harlan Industries (Indianapolis, Ind.) and maintained on a 12-h light/dark cycle (lights on at 06:00 h) in a climate-controlled room with food and water available ad libitum.
The rats were anesthetized with isoflurane inhalant anesthesia. The left lumbar spinal nerve at the level of L5 was tightly ligated (4-0 silk suture) distal to the dorsal root ganglion and prior to entrance into the sciatic nerve, as described by Kim and Chung. The incisions were closed and the rats were allowed to recover under conditions described above. This procedure results in mechanical allodynia in the left hind paw. The sham operation, when performed, consisted of a similar surgical procedure lacking only the final ligation of the spinal nerve. Mechanical (tactile) allodynia was assessed by recording the pressure at which the affected paw (ipsilateral to the site of nerve injury) was withdrawn from graded stimuli (von Frey filaments ranging from 4.0 to 148.1 mN) applied perpendicularly to the plantar surface of the paw (between the footpads) through wire-mesh observation cages. A paw withdrawal threshold (PWT) was determined by sequentially increasing and decreasing the stimulus strength and analyzing withdrawal data using a Dixon non-parametric test (Chaplan, et al). Normal rats, sham operated rats, and the contralateral paw of L5 ligated rats withstand at least 148.1 mN (equivalent to 15 g) of pressure without responding.
The dosing materials were all prepared in the vehicle, a suspension of 0.5% hydroxypropyl methylcellulose in distilled water; drug weights were calculated as the free base. The tramadol solution was prepared first, and the appropriate volume of this solution was added to a neat amount of the anticonvulsant to give the final dosing suspension. Drug weights were calculated as the free base, and the ratios used were based on the respective ED50 values of tramadol and the anticonvulsant. The necessary doses for each ratio were prepared separately and dosed orally in a volume of 10 mL/kg per rat.
The Chung Model rats were all dosed orally with the composition comprising a combination of tramadol hydrochloride (calculated as the base) and the anticonvulsant drug (calculated as the base) or the composition of each agent separately dissolved in distilled water or dissolved in a suspension of 0.5% hydroxypropyl methylcellulose in distilled water. The dosing volume was 10 mL/kg.
The rats were intubated with various doses of tramadol hydrochloride alone, anticonvulsant drug alone, combined doses of tramadol hydrochloride and anticonvulsant or vehicle such as distilled water or a suspension of 0.5% hydroxypropyl methylcellulose in distilled water.
Within a certain time after the oral administration of tramadol hydrochloride alone, the anticonvulsant drug alone, the composition comprising a combination of tramadol hydrochloride and the anticonvulsant drug or vehicle alone, the PWT test was commenced. Each rat was used in the evaluation of only a single dose-ratio.
The analysis of possible synergistic effect for the compositions at each fixed ratio was determined (R. J. Tallarida, et al., Life Sci., 1989, 45, 947). This procedure involves the determination of the total amount in the mixture that is required to produce a specified synergistic antiallodynic effect at the 50% dose level (that is, the ED50mix or Zmix) and the corresponding total amount that would be expected under simple additivity (ED50add or Zadd). Where it is established that Zmix<Zadd for a specific fixed-ratio, then that composition has a synergistic antiallodynic effect. Both the quantities ED50mix and ED50add are random variables.

[3] = drug alone 30 mg/kg p.o., 1 hour
[4] = drug alone 50 mg/kg p.o., 2 hours
[5] = drug alone 60 mg/kg p.o., 1 hour
[6] = drug alone 75 mg/kg p.o., 2 hours
[7] = drug alone 90 mg/kg p.o., 1 hour
[8] = drug alone 100 mg/kg p.o., 2 hours
[9] = drug alone 125 mg/kg p.o., 2 hours
[10] = drug alone 150 mg/kg p.o., 2 hours
[11] = drug alone 250 mg/kg p.o., 2 hours
[12] = drug alone 500 mg/kg p.o., 2 hours
[13] = drug alone 25 mg/kg p.o., 2 hours

SMILES	% Maximal Possible Effect ([1]; drug alone 10 mg/kg p.o.) [%]	% Maximal Possible Effect ([1]; drug alone 30 mg/kg p.o.) [%]	ED50 ([2]; 1 h) [mg/kg]	ED50 ([2]; 2 h) [mg/kg]	% MPE [2, 3] [% MPE]	% MPE [2, 4] [% MPE]	% MPE [2, 5] [% MPE]	% MPE [2, 6] [% MPE]	% MPE [2, 7] [% MPE]	% MPE [2, 8] [% MPE]	% MPE [2, 9] [% MPE]	% MPE [2, 10] [% MPE]	% MPE [2, 11] [% MPE]	% MPE [2, 12] [% MPE]	% MPE [2, 13] [% MPE]	other results
COc1cccc(C2(O)CCCCC2CN(C)C)c1 (single isomer, unassigned) [Tramadol, (1R,2R or 1S,2S)-2-[(dimethylamino)methyl]-1-(3-methoxyphenyl)cyclohexanol]	5.83	37.74	48.6	94.5	25.70	3.77	40.96	20.62	73.61	45.38	74.29	100	–	–	–	ED50 ([1]; Mus musculus, po, 1.5 h, p.o., 48° C. hot plate, read-out: ED50 (SEM) at 1.5 Hours): 35.1 mg/kg; % Maximal Possible Effect ([1]; drug alone 100 mg/kg p.o.): 86.62%; % Maximal Possible Effect ([1]; drug alone 300 mg/kg p.o.): 100%; antinociceptive effect in dose-response study ([1]; p.o., 48° C. hot plate): dose-dependent antinociceptive effect; antinociceptive effect at the higher doses ([1]; p.o., 48° C. hot plate, higher doses): Full antinociceptive effect; % MPE ([2]; drug alone 10 mg/kg p.o., 1 hour): 16.79 % MPE; % MPE ([2]; drug alone 120 mg/kg p.o., 1 hour): 84.05 % MPE
NCC1(CC(=O)O)CCCCC1 [Gabapentin]	–	–	–	440	–	–	–	–	–	7.31	–	–	15.62	54.26	–	% MPE ([2]; drug alone 750 mg/kg p.o., 2 hours): 67.95 % MPE; % MPE ([2]; drug alone 1000 mg/kg p.o., 2 hours): 85.34 % MPE
Nc1nnc(-c2cccc(Cl)c2Cl)c(N)n1 [Lamotrigine]	–	–	–	75.5	–	21.95	–	48.69	–	–	75.09	83.51	–	–	5.48	–
NC(=O)OC[C@@H](O)c1ccccc1Cl [RWJ-333369, 1,2-ethanediol, 1-(2-chlorophenyl)-, 2-carbamate, (S)-]	–	–	77.4	–	5.57	–	30.43	–	57.01	–	–	–	–	–	–	% MPE ([2]; drug alone 45 mg/kg p.o., 1 hour): 23.01 % MPE; % MPE ([2]; drug alone 75 mg/kg p.o., 1 hour): 54.54 % MPE
CC1(C)O[C@@H]2[C@@H](CO[C@@]3(COS(N)(=O)=O)OC(C)(C)O[C@@H]23)O1 [Topiramate, 2,3,4,5-bis-O-(1-methylethylidene)-β-D-fructopyranose sulfamates]	0.82	9.71	–	98	–	26.58	–	–	–	56.42	–	–	76.51	94.38	11.54	–
